Results: US20020159981A1, “Methods of controlling proliferation and differentiation of stem and progenitor cells” (Gamida-Cell Ltd., priority 1999, published 2002)

Columns and labels:
[1] = system: Cord blood-derived CD34 cells; assay: Short-term liquid culture of CD34 cells: cell number, CD34 cells, colony forming cells; assay type: cell-based, human
Method: The interphase layer of mononuclear cells were collected, washed three times with Ca/Mg free phosphate buffered saline containing 1% bovine serum albumin (BSA). The cells were incubated for 30 min. at 4° C. with murine monoclonal anti CD34 antibody (0.5 μg/10^6 mononuclear cells) and thereafter isolated using the miniMACS apparatus (Miltenyi-Biotec, Bergisch, Gladbach, Germany) according to the manufacturer's protocol.
Culture procedures: For the expansion of progenitor cells, CD34^+ enriched fractions or unseparated mononuclear cells were seeded at about 1-3×10^4 cells/ml in either alpha minimal essential medium containing 10% preselected fetal calf serum (FCS) (both from GIBCO, Grand Island, N.Y.), or serum-free medium (Progenitor-34 medium, Life Technologies, Grand Island, N.Y.). The media were supplemented with a mixture of growth factors and transition metal chelators. The cultures were incubated at 37° C. in an atmosphere of 5% CO2 in air with extra humidity. Half of the medium was changed weekly with fresh medium containing all the supplements.
Cloning potential evaluations: The cloning potential of cells developed in the liquid culture was assayed, at different intervals, in semi-solid medium. The cells were washed and seeded in 35 mm dishes in methylcellulose containing alpha medium supplemented with recombinant growth factors (SCF, G-CSF, GM-CSF and EPO). Following 2 weeks incubation, the cultures were scored with an inverted microscope. Colonies were classified as blast, mixed, erythroid, myeloid, and megakaryocytic, according to their cellular composition.
Immunofluorescence staining: At different intervals, cells from the liquid cultures were assayed for CD34 antigen. Aliquots were harvested, washed and incubated on ice with FITC-labeled anti CD45 monoclonal antibody and either PE-labeled anti CD34 (HPCA-2) monoclonal antibody or PE-labeled control mouse Ig. After incubation, red cells were lysed with lysing solution, while the remaining cells were washed and analyzed by flow cytometer.
Flow cytometry: Cells were analyzed and sorted using FACStarPlus flow cytometer (Becton-Dickinson, Immunofluorometry systems, Mountain View, Calif.). Cells were passed at a rate of 1,000 cells/second through a […] nozzle, using saline as the sheath fluid. A 488 nm argon laser beam at 250 mW served as the light source for excitation. […] The PMTs was set at the appropriate voltage. Logarithmic amplification was applied for measurements of fluorescence and linear amplification—for forward light scatter. At least 10^4 cells were analyzed.
Cord blood-derived CD34 cells were plated in liquid culture in the presence of: FL—50 ng/ml, SCF—50 ng/ml, IL-6—50 ng/ml, with or without IL-3—20 ng/ml, with or without TEPA—10 μM. On day 7, the percentage of CD34 cells and the total cell number were determined. Aliquots equivalent to 1×10^3 initiating cells were assayed on days 0 and 7 for colony forming cells (CFU) by cloning in semi-solid medium. CFU expansion represents the ratio of CFU present on day 7 to CFU present on day 0.

[2] = system: Murine erythroleukemia cells (MEL); assay: HMBA-induced differentiation and growth of erythroleukemic cells; assay type: cell-based, mouse; conditions: day 3 (Table 2)
Method: Mouse erythroleukemic cells (MEL): MEL cells are erythroblast like cells. Following treatment with several chemicals (differentiation inducers) the cells undergo erythroid differentiation and accumulate hemoglobin. […] At day 3 of the culture, the total number of cells and the percentage of hemoglobin-containing cells were determined (Table 2).
On day 3, total cell number and hemoglobin containing (benzidine positive) cells were determined.

[3] = system: lethally irradiated Balb/c×C57B1/6 F1 mice; assay: Hematopoietic reconstitution of lethally irradiated mice with ex-vivo expanded bone marrow cells; assay type: in vivo; conditions: compared to fresh cells or cells expanded without TEPA
Method: Hematopoietic reconstitution of lethally irradiated mice—fresh vs. ex-vivo expanded cells: Three month old female Balb/c×C57B1/6 F1 mice were lethally irradiated (1000 rad) and transplanted one day later with 1×10^5 fresh bone marrow cells or the yield of 1×10^5 bone marrow cells expanded ex-vivo either with or without TEPA for 3 to 5 weeks, as detailed in Table 7. Peripheral blood WBC counts were performed on weekly basis.

[4] = high doses of early cytokines or early- and late-acting cytokines (Table 1, FIG. 3)

SMILES: NCCNCCNCCNCCN [TEPA, tetraethylenepentamine]
- Cells/ml (×10^4) ([1]; TEPA 10 μM, without IL-3, FL, SCF, IL-6 50 ng/ml each, day 7): 2 ×10^4 cells/ml
- total cell number ([1]; cultures supplemented with both early and late cytokines (FIG. 3)): marginal inhibition
- clonability [1, 4]: significantly increased
- percentage of CD34^+ cells [1, 4]: significantly increased
- cell clonability ([1]; low doses of early-acting cytokines, colonies in semi-solid medium (FIG. 1)): significant increase
- total cell number ([1]; low doses of early-acting cytokines, compared to cytokines only (FIG. 2)): significant increase
- number of CD34^+ cells ([1]; low doses of early-acting cytokines, flow cytometry (FIG. 2)): significant increase
- HMBA-induced differentiation of MEL cells [2]: inhibited
- WBC recovery [3]: faster
